Earlier results, collected in patent US20200289459A1, “LIQUID DOSAGE FORMS, METHODS OF MAKING AND USE” (CANOPY GROWTH CORPORATION, priority 2017, published 2020).

Columns and labels:
CB1 receptor = CB1 receptor (Homo sapiens, UniProt P21554)
5-HT1A receptor = target: T1, 5-HT1A receptor (Homo sapiens, UniProt P08908)
T1 sequence (P08908 1-422): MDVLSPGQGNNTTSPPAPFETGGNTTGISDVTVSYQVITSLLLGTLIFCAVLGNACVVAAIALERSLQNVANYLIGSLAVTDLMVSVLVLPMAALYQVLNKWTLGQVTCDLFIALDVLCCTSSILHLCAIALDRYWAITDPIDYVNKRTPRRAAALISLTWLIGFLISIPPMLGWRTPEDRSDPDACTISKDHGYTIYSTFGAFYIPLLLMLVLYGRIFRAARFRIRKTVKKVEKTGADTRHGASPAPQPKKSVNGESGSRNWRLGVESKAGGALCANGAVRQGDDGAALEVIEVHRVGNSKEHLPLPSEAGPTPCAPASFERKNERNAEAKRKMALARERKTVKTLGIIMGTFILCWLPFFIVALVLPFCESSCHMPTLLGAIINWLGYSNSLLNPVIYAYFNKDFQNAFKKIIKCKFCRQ

CB2 receptor = CB2 receptor (Homo sapiens, UniProt P34972)
Sequence of CB2 receptor (P34972 whole entry): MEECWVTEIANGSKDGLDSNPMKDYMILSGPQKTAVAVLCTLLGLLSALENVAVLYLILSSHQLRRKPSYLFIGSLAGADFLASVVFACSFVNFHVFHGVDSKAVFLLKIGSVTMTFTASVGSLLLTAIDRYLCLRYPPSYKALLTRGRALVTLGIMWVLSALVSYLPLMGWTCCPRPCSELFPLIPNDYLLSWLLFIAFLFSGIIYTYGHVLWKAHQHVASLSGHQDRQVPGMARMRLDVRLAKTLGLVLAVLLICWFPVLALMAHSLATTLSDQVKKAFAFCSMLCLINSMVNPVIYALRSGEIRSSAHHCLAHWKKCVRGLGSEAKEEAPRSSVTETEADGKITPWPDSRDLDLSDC

[1] = system: locomotor suppression, catalepsy, hypothermia and analgesia; conditions: up to 80 mg/kg

Sequence of CB1 receptor (P21554 whole entry): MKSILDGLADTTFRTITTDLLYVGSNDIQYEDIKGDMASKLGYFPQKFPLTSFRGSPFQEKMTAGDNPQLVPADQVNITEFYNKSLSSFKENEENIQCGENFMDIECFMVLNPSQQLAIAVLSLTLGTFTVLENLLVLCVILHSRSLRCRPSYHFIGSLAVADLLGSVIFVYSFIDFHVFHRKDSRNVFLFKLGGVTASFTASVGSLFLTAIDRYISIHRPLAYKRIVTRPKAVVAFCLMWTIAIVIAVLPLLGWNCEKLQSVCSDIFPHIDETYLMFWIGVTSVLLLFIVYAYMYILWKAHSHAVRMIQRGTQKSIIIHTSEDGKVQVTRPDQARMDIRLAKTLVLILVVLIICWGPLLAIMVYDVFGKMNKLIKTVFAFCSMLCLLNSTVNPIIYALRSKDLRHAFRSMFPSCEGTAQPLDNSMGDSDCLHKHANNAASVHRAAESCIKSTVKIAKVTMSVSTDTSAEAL

For `CCCCCc1cc(O)c(C/C=C(\C)CCC=C(C)C)c(O)c1` [CBG, Cannabigerol], the “affinity as α2-adrenergic receptor agonist” value (α2-adrenergic receptor) is given as “high affinity”, the “affinity as CB1 receptor antagonist” value (CB1 receptor) is given as “low affinity” and the “affinity as 5-HT1A receptor antagonist” value (5-HT1A receptor) is given as “moderate affinity”. The “binding to the CB2 receptor” value (CB2 receptor) was “antagonist” and the “effect in the mouse tetrad test of cannabimimetic activity” value [1] was “without effect”.
